4 compounds from paper PMC6279831, “Reconstructing the evolutionary history of F420-dependent dehydrogenases” (Scientific Reports, 2018) can be followed below.

Experiment [1] relates to AncD1. Set-up: steady-state kinetics with 20 uM F420, absorbance decrease at 400 nm, pH 7.5, 25 °C. The conditions noted are these: 20 uM F420, pH 7.5, 25 °C; substrate. The protocol: Sugars (phosphorylated as well as non-phosphorylated) and alcohols were tested as substrates. D-glucose-6-phosphate (G6P) was used as a prototype substrate to initially verify activity. Other 6-phosphorylated sugars tested were: D-fructose-6-phosphate, D-mannose-6-phosphate and D-glucosamine-6-phosphate. D-glucose, D-fructose, D-mannose, D-xylose, D-galactose-1-phosphate, D-glucose-1-phosphate, isopropanol, isobutanol, butanol and cyclohexanol were also tested for activity. Kinetics of all enzymes was measured in a Synergy MX microplate reader (BioTek) using 96-well F-bottom plates (Greiner Bio-One GmbH) at 25 °C. Assays were performed in a volume of 200 µL, containing 20 µM F420, 50–100 nM of enzyme and varying concentrations of the substrates in buffer (50 mM KPi, pH 7.5). Reaction was started by adding 100 µL of enzyme. All measurements were followed at λ = 400 nm for 3 min. The observed rates (kobs) were calculated by using a molecular extinction coefficient of ε400 (F420) = 25.7 mM^−1cm^−1. All experiments were repeated three times.

Experiment [2] has as its target T1, FGD-Cryar (FSD-Cryar) (Cryptosporangium arvum, UniProt A0A010YY07).
T1 construct: gene CryarDRAFT_1153
Description: fluorescence quenching of FMN (ex […] nm, em […] nm), one-site fit. It is filed as binding. Conditions: read-out: FGD-Noca (FSD-Noca) / kcat [s^-1].

Experiment [3] deals with AncD1. The experiment is described as above. It is filed as binding. Conditions: 0.1 µM cofactor, 25 °C; apparent KD; read-out: FGD-Noca (FSD-Noca) / kcat [s^-1].
Experiment [4] addresses T2, FGD-Noca (FSD-Noca) (Nocardioidaceae bacterium Broad-1, UniProt E9V3D1).
T2 construct: full-length, codon-optimised, expressed in E. coli TOP10 (pBAD) as native protein, no SUMO; purified by anion exchange
The experiment is described as above. The format is binding. Conditions: read-out: FGD-Noca (FSD-Noca) / kcat [s^-1].

Some results are limits rather than exact numbers.

What is called Km is the substrate concentration at which the rate is half of its maximum. Take `O=P(O)(O)OC[C@H]1OC(O)(CO)[C@@H](O)[C@@H]1O` (stereo partly drawn) [D-fructose-6-phosphate]: the Km in experiment [1] came out at 45 ± 15 mM.
Same read-out and setting: the value for `O=P(O)(O)OC[C@H]1OC(O)[C@H](O)[C@@H](O)[C@@H]1O` (stereo partly drawn) [D-glucose-6-phosphate] was 1 ± 0.19 mM; that for `O=P(O)(O)OC[C@H]1OC(O)[C@@H](O)[C@@H](O)[C@@H]1O` (stereo partly drawn) [D-mannose-6-phosphate] was 7.2 ± 4.7 mM.
For the compound `Cc1cc2nc3c(=O)[nH]c(=O)nc-3n(C[C@H](O)[C@H](O)[C@H](O)COP(=O)(O)O)c2cc1C` [FMN], the Kd in experiment [2], in experiment [3] and in experiment [4] was above 150 µM each time.
